Tested on: electron transport system of SMP (sub-mitochondrial particle)
Assay: pH change caused by SMP after contact with the sample and addition of NADH as external electron donor
Assay type: biochemical
Details: for pH change rate: control about 0.17 per minute
Procedure: First of all, a large quantity of SMPs were prepared by sonicating mitochondria.
Thereafter, the test tubes 1 to 3 were prepared, wherein 10 ml of a 2 mM KCl solution (control solution) was added to the test tube 1, 10 ml of 10% ethanol dissolved in the control solution was added to the test tube 2, and 10 ml of 20% ethanol dissolved in the same was added to the test tube 3. SMPs prepared above were added to each test tube at a final concentration of 1.4 mg/ml.
Next, 0.1 mM of NADH that acts as an external electron donor was added to each test tube at the same time, and the pH change in each test tube was measured for 5 minutes by using a pH meter.
In order to examine whether the method of the present invention is sensitive to only a toxic substance, the experiment was carried out according to the same method as described in Example 1 except that the sample prepared by dissolving 20% sorbitol in a 2 mM KCl solution was used.

Structure (SMILES)	pH change compared with control (20% sorbitol in 2 mM KCl, SMP 1.4 mg/ml, 0.1 mM NADH, 5 minutes)	pH change rate (10% ethanol (FIG. 5))	pH increase for 5 minutes (10% ethanol in 2 mM KCl, SMP 1.4 mg/ml, 0.1 mM NADH, pH meter, control increased about 0.9)	pH change for 5 minutes (20% ethanol in 2 mM KCl, SMP 1.4 mg/ml, 0.1 mM NADH, pH meter)	pH change rate (20% ethanol, the relatively strong toxic substance (FIG. 5))
OC[C@@H](O)[C@@H](O)[C@H](O)[C@@H](O)CO [sorbitol]	almost identical to that of a control				
CCO [ethanol]		lower than 0.1 per minute	about 0.4	almost no pH change	lower than 0.02 per minute

— patent US20070231919A1, “Method for detecting the effect of a toxic substance using sub-mitochondrial particle” (SAMSUNG ELECTRONICS CO., LTD., priority 2005, published 2007)
